Assays:
[1] = tested on: synthesis of LTB4 in human whole blood; experiment: Human whole blood LTB4 production inhibition assay; format: cell-based; conditions: heparinized human whole blood, calcimycin 20 μM, plasma LTB4; read-out: HuWB IC50
Method in brief: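 LTB4 in plasma was quantified by HTRF immunoassay. Before that, compound-treated heparinized whole blood (15 min, 37 °C) received 20 μM final calcimycin for a further 30 min at 37 °C, followed by centrifugation at 1500×g.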

[2] = target: T1, recombinant human FLAP protein (Homo sapiens, UniProt P20292); experiment: FLAP binding assay (SPA, displacement of [125I]L-691,831); conditions: membranes of sf9 cells expressing human FLAP, [125I]L-691,831 probe; read-out: hFLAP binding IC50
T1 construct: made in house; host or cells: Sf9 insect cells (membrane fraction, 100,000 x g pellet)
T1 sequence (P20292 1-161): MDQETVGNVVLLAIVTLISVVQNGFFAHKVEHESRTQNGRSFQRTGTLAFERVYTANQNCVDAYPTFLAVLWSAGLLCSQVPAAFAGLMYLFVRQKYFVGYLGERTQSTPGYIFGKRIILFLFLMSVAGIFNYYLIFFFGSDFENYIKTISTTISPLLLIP
Method in brief: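 Membranes from sf9 cells expressing human FLAP (5 μg/well) were bound to WGA SPA beads (200 μg/well). Nonspecific binding was defined with 10 μM unlabelled L-691,831.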

SMILES | IC50 [1] | IC50 [2]
COc1ccc(-c2ccc(NC(=O)C3(c4ccc(-c5cnc6[nH]ccc6c5)cc4)CCOCC3)nc2)cn1 [Example 168, N-(6'-methoxy-3,3'-bipyridin-6-yl)-4-[4-(1H-pyrrolo[2,3-b]pyridin-5-yl)phenyl]tetrahydro-2H-pyran-4-carboxamide] | 616 nM | 7.95 nM
Nc1ncc(-c2ccc(C3(C(=O)Nc4ccc5c(c4)OCCO5)CCOCC3)cc2)cn1 [Example 12, 4-[4-(2-aminopyrimidin-5-yl)phenyl]-N-(2,3-dihydro-1,4-benzodioxin-6-yl)tetrahydro-2H-pyran-4-carboxamide] | 2220 nM | 68 nM
Cc1ccc(NC(=O)C2(c3ccc(-c4cnc(N)nc4)cc3)CCC2)nc1 [Example 210, 1-[4-(2-aminopyrimidin-5-yl)phenyl]-N-(5-methylpyridin-2-yl)cyclobutanecarboxamide] | 792 nM | 5.1 nM
CC(C)(C)c1cccc(NC(=O)C2(c3ccc(-c4cnc(N)nc4)cc3)CCOCC2)c1 [Example 74, 4-[4-(2-aminopyrimidin-5-yl)phenyl]-N-(3-tert-butylphenyl)tetrahydro-2H-pyran-4-carboxamide] | > 3000 nM | 97 nM
N#Cc1ccc(NC(=O)C2(c3ccc(-c4cnc(N)nc4)cc3)CCC2)cc1 [Example 250, 1-[4-(2-aminopyrimidin-5-yl)phenyl]-N-(4-cyanophenyl)cyclobutanecarboxamide] | 60.8 nM | 3.2 nM
Cc1nc(-c2ccc(NC(=O)C3(c4ccc(-c5cnc(N)nc5)cc4)CCCC3)nc2)cs1 [Example 223] | 1670 nM | 7.15 nM
N#Cc1ccc(NC(=O)C2(c3ccc(-c4cnc(N)nc4)cc3)CCOCC2)cc1C(F)(F)F [Example 40, 4-[4-(2-aminopyrimidin-5-yl)phenyl]-N-[4-cyano-3-(trifluoromethyl)phenyl] tetrahydro-2H-pyran-4-carboxamide] | 1220 nM | 29 nM
Nc1ncc(-c2ccc(C3(C(=O)Nc4ccc5cnccc5c4)CCOCC3)cc2)cn1 [Example 51, 4-[4-(2-aminopyrimidin-5-yl)phenyl]-N-(isoquinolin-6-yl)tetrahydro-2H-pyran-4-carboxamide] | 1690 nM | 18 nM
COc1ccc(-c2ccc(NC(=O)C3(c4ccc(-c5cnc(N)nc5)cc4)CCC3)nc2)cn1 [Example 208, 1-[4-(2-aminopyrimidin-5-yl)phenyl]-N-(6'-methoxy-3,3'-bipyridin-6-yl)cyclobutanecarboxamide] | 459 nM | 3.35 nM
COc1ccc2nc(NC(=O)C3(c4ccc(-c5cnc(N)nc5)cc4)CCOCC3)sc2c1 [Example 7, 4-[4-(2-aminopyrimidin-5-yl)phenyl]-N-(6-methoxy-1,3-benzothiazol-2-yl)tetrahydro-2H-pyran-4-carboxamide] | 2660 nM | 10.7 nM
CNc1ncc(-c2ccc(C3(C(=O)Nc4cccnc4)CCC3)cc2)cn1 [Example 192, 1-{4-[2-(methylamino)pyrimidin-5-yl]phenyl}-N-(pyridin-3-yl)cyclobutanecarboxamide] | 861 nM | 32 nM
Nc1ncc(-c2ccc(C3(C(=O)Nc4nc(-c5ccncc5)cs4)CCC3)cc2)cn1 [Example 254, 1-[4-(2-aminopyrimidin-5-yl)phenyl]-N-[4-(pyridin-4-yl)-1,3-thiazol-2-yl]cyclobutanecarboxamide] | 111 nM | 1.6 nM
Nc1ncc(-c2ccc(C3(C(=O)Nc4nc(-c5ccccn5)cs4)CCOCC3)cc2)cn1 [Example 59, 4-[4-(2-aminopyrimidin-5-yl)phenyl]-N-[4-(pyridin-2-yl)-1,3-thiazol-2-yl]tetrahydro-2H-pyran-4-carboxamide] | > 3000 nM | 12.7 nM
Cc1cc(NC(=O)C2(c3ccc(-c4cnc5[nH]ccc5c4)cc3)CCC2)ccn1 [Example 189, N-(2-methylpyridin-4-yl)-1-[4-(1H-pyrrolo[2,3-b]pyridin-5-yl)phenyl]cyclobutanecarboxamide] | 190 nM | 1.45 nM
Cc1nc2cc(NC(=O)C3(c4ccc(-c5cnc(N)nc5)cc4)CCOCC3)ccc2s1 [Example 75, 4-[4-(2-aminopyrimidin-5-yl)phenyl]-N-(2-methyl-1,3-benzothiazol-5-yl)tetrahydro-2H-pyran-4-carboxamide] | > 3000 nM | 68 nM
Nc1ncc(-c2ccc(C3(C(=O)Nc4nc(-c5cccnc5)cs4)CCC3)cc2)cn1 [Example 253, 1-[4-(2-aminopyrimidin-5-yl)phenyl]-N-[4-(pyridin-3-yl)-1,3-thiazol-2-yl]cyclobutanecarboxamide] | 270 nM | 1.8 nM

SMILES | IC50 [1] | IC50 [2]
Nc1ncc(-c2ccc(C3(C(=O)Nc4ccc5ncsc5c4)CCOCC3)cc2)cn1 [Example 18, 4-[4-(2-aminopyrimidin-5-yl)phenyl]-N-(1,3-benzothiazol-6-yl)tetrahydro-2H-pyran-4-carboxamide] | 1700 nM | 16 nM
COC(=O)c1sc(-c2ccc(Cl)cc2)cc1NC(=O)C1(c2ccc(-c3cnc(N)nc3)cc2)CCOCC1 [Example 73, methyl 3-[({4-[4-(2-aminopyrimidin-5-yl)phenyl]tetrahydro-2H-pyran-4-yl}carbonyl)amino]-5-(4-chlorophenyl)thiophene-2-carboxylate] | 1500 nM | 53.5 nM
COc1cncc(-c2ccc(NC(=O)C(C)(c3ccc(-c4cnc(N)nc4)cc3)C(C)C)nc2)c1 (stereo not shown) [Example 162, 2-[4-(2-aminopyrimidin-5-yl)phenyl]-N-(5'-methoxy-3,3'-bipyridin-6-yl)-2,3-dimethylbutanamide] | 896 nM | 4.1 nM
Nc1ncc(-c2ccc(C3(C(=O)Nc4ccc(Oc5ccccc5)cn4)CCC3)cc2)cn1 [Example 194, 1-[4-(2-aminopyrimidin-5-yl)phenyl]-N-(5-phenoxypyridin-2-yl)cyclobutanecarboxamide] | 577 nM | 19.2 nM
Nc1ncc(-c2ccc(C3(C(=O)Nc4ccc(Cl)c(F)c4)CCOCC3)cc2)cn1 [Example 66, 4-[4-(2-aminopyrimidin-5-yl)phenyl]-N-(4-chloro-3-fluorophenyl)tetrahydro-2H-pyran-4-carboxamide] | 1780 nM | 11.9 nM
Nc1ncc(-c2ccc(C3(C(=O)Nc4ccc(-c5ccncc5)cc4)CCOCC3)cc2)cn1 [Example 34, 4-[4-(2-aminopyrimidin-5-yl)phenyl]-N-[4-(pyridin-4-yl)phenyl]tetrahydro-2H-pyran-4-carboxamide] | 160 nM | 11.7 nM
Nc1ncc(-c2ccc(C3(C(=O)Nc4ccncc4)CCCC3)cc2)cn1 [Example 230, 1-[4-(2-aminopyrimidin-5-yl)phenyl]-N-(pyridin-4-yl)cyclopentanecarboxamide] | 696 nM | 21.5 nM
Cc1nc(-c2cccc(NC(=O)C3(c4ccc(-c5cnc(N)nc5)cc4)CCOCC3)c2)cs1 [Example 70, 4-[4-(2-aminopyrimidin-5-yl)phenyl]-N-[3-(2-methyl-1,3-thiazol-4-yl)phenyl]tetrahydro-2H-pyran-4-carboxamide] | > 3000 nM | 42 nM
Cc1ccc2cc(NC(=O)C3(c4ccc(-c5cnc(N)nc5)cc4)CCOCC3)ccc2n1 [Example 86, 4-[4-(2-aminopyrimidin-5-yl)phenyl]-N-(2-methylquinolin-6-yl)tetrahydro-2H-pyran-4-carboxamide] | 412 nM | 18.7 nM
Cc1ccc(NC(=O)C2(c3ccc(-c4cnc(N)nc4)cc3)CCOCC2)cc1C#N [Example 62, 4-[4-(2-aminopyrimidin-5-yl)phenyl]-N-(3-cyano-4-methylphenyl)tetrahydro-2H-pyran-4-carboxamide] | > 3000 nM | 33.5 nM
COC(=O)c1ccc(NC(=O)C2(c3ccc(-c4cnc(N)nc4)cc3)CCOCC2)nc1 [Example 146, methyl 6-[({4-[4-(2-aminopyrimidin-5-yl)phenyl]tetrahydro-2H-pyran-4-yl}carbonyl)amino]pyridine-3-carboxylate] | 752 nM | 11.1 nM
Cn1cc(-c2ccc(NC(=O)C3(c4ccc(-c5cnc(N)nc5)cc4)CCC3)nc2)cn1 [Example 255, 1-[4-(2-aminopyrimidin-5-yl)phenyl]-N-[5-(1-methyl-1H-pyrazol-4-yl)pyridin-2-yl]cyclobutanecarboxamide] | 144 nM | 2.5 nM
CNc1ncc(-c2ccc(C3(C(=O)Nc4ccc(-c5csc(C)n5)cn4)CCOCC3)cc2)cn1 [Example 193, 4-{4-[2-(methylamino)pyrimidin-5-yl]phenyl}-N-[5-(2-methyl-1,3-thiazol-4-yl)pyridin-2-yl]tetrahydro-2H-pyran-4-carboxamide] | 1650 nM | 10.1 nM
Nc1ncc(-c2ccc(C3(C(=O)Nc4cccc(OC(F)(F)F)c4)CCOCC3)cc2)cn1 [Example 21] | > 3000 nM | 12 nM
COc1cc(NC(=O)C2(c3ccc(-c4cnc(N)nc4)cc3)CCC2)ncn1 [Example 199, 1-[4-(2-aminopyrimidin-5-yl)phenyl]-N-(6-methoxypyrimidin-4-yl)cyclobutanecarboxamide] | 1380 nM | 5.7 nM
Cc1nc(-c2ccc(NC(=O)C3(c4ccc(-c5cnc(N)c(CO)c5)cc4)CCOCC3)nc2)cs1 [Example 176, 4-{4-[6-amino-5-(hydroxymethyl)pyridin-3-yl]phenyl}-N-[5-(2-methyl-1,3-thiazol-4-yl)pyridin-2-yl]tetrahydro-2H-pyran-4-carboxamide] | 712 nM | 6.65 nM

From patent US9073895B2 (Boehringer Ingelheim International GmbH, priority 2010, dated 2015)
